We go through 1 molecule from patent US5508039A (priority 1994, dated 1996).

Some results are limits rather than exact numbers.

One data set relates to mice. To be noted: cited from earlier work.
The next data set relates to breast cancer. Conditions: cited from earlier work.
The next data set deals with insomniacs. To be noted: oral; cited from earlier work.
The conditions of data set [1]: human, in vivo; cited from earlier work.
Another data set is described as follows: clinical. It is filed as in vivo, human. The protocol: (§1) Therapeutic blood levels from 20 pg/ml to 1,000 pg/ml can be obtained from administration rates in the range of […]. […] Therapeutic blood levels can be achieved within approximately 2 hours, and peak blood concentrations are achieved at about 4-6 hours when the system is worn for 4-6 hours. […] The system application is easily adapted for shorter or longer duration treatments, but generally 6 hours is the nominal duration for treatment of most insomnias.

In data set [2] the test system is desynchronized blind persons. To be noted: oral; cited from earlier work.
Data set [3] relates to intraocular pressure in glaucoma. To be noted: cited from earlier work.
The conditions of data set [4]: general statement; cited from earlier work.
The format of data set [5] is in vivo, human. The protocol:
as §1

The conditions of data set [6]: cited from earlier work.
Setting [7] is: human, in vivo, topical or ocular.

For `COc1ccc2[nH]cc(CCNC(C)=O)c2c1` [melatonin, N-acetyl-5-methoxytryptamine], the LD50 intraperitoneal with mice (intraperitoneal) was 1375 mg/kg. Moreover, the LD50 intravenous in the data set with mice (intravenous) is given as 180 mg/kg. The “inhibition of breast cancer” value in the data set with breast cancer is “inhibit breast cancer”. Besides, in the data set with insomniacs, the “mood, drive, alertness, and reaction time the next day” value is on record as “improved”; the “time awake before sleep onset, sleep latency and number of awakenings” value was “reduced the time awake before sleep onset and diminished sleep latency and number of awakenings”. Also, in data set [1], the metabolic clearance result was “approximately 1 liter per minute”, the “terminal plasma elimination half-life” value was “approximately 45 minutes” and the volume of distribution result was “approximately 40 liters”. Moreover, the “desired and achievable system flux through the skin from a limited area” value in the data set “clinical” is 0,025-1.0. For the same molecule, in the data set “clinical” (setting [7]), the time of peak concentration (Tmax) was in the range of 4 to 6 h and the half-life lay in the range of 1 to 2 h. In addition, the “time to achieve therapeutic blood levels” value in “clinical” (in vivo) was not above 2 h. Moreover, the “timing of sleep cycles” value in data set [2] is recorded as “Improved timing of sleep cycles”. Besides, the intraocular pressure entry in data set [3] is listed as “lower intraocular pressure in glaucoma”. Also, the toxicity entry in data set [4] was “relatively non-toxic”. Further, the “skin flux through living human skin” value in data set [5] is 0.05-10 mg/cm^2 /hr. The “absorption through the gastrointestinal tract” value in data set [6] (in vivo, po) is reported as “readily absorbed”. Further, the “inactivation by liver of absorbed melatonin on first-pass” value in data set [6] (oral) is not above 99%.

A word on the Tmax: it is the time from dosing to the highest level. One may read the half-life as the time needed for the level to fall by half in the phase considered. Low readings indicate fast loss, high ones slow loss.
